# Measurements as given in US20120165310A1, “ETHER DERIVATIVES OF BICYCLIC HETEROARYLS” (NOVARTIS AG, priority 2009, published 2012).
# Target: T1, IGF-1R (Homo sapiens, UniProt P08069)
# T1 construct: expressed in transfected cells; host or cells: Hek293 (Hek293-IGF1R)
# Experiment: Cellular IGF-1R assay: capture ELISA (MSD) of receptor phosphorylation in Hek293 cells
# Format: cell-based
# Details: Hek293-IGF1R cells, 1 h pre-incubation, 10 min IGF stimulation, pIGF1R capture ELISA
# Outline: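 IC50 from 4-parameter fit of IGF1R phosphorylation, normalised to IGF-stimulated and unstimulated controls, measured by MSD capture ELISA on lysates. Hek293-IGF1R cells in starvation medium got compound 1 h (top 10 μM, 3-fold steps, 0.1% DMSO) before a 10 min pulse of 1.0 ng/μL IGF.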
# T1 sequence (P08069 31-1367): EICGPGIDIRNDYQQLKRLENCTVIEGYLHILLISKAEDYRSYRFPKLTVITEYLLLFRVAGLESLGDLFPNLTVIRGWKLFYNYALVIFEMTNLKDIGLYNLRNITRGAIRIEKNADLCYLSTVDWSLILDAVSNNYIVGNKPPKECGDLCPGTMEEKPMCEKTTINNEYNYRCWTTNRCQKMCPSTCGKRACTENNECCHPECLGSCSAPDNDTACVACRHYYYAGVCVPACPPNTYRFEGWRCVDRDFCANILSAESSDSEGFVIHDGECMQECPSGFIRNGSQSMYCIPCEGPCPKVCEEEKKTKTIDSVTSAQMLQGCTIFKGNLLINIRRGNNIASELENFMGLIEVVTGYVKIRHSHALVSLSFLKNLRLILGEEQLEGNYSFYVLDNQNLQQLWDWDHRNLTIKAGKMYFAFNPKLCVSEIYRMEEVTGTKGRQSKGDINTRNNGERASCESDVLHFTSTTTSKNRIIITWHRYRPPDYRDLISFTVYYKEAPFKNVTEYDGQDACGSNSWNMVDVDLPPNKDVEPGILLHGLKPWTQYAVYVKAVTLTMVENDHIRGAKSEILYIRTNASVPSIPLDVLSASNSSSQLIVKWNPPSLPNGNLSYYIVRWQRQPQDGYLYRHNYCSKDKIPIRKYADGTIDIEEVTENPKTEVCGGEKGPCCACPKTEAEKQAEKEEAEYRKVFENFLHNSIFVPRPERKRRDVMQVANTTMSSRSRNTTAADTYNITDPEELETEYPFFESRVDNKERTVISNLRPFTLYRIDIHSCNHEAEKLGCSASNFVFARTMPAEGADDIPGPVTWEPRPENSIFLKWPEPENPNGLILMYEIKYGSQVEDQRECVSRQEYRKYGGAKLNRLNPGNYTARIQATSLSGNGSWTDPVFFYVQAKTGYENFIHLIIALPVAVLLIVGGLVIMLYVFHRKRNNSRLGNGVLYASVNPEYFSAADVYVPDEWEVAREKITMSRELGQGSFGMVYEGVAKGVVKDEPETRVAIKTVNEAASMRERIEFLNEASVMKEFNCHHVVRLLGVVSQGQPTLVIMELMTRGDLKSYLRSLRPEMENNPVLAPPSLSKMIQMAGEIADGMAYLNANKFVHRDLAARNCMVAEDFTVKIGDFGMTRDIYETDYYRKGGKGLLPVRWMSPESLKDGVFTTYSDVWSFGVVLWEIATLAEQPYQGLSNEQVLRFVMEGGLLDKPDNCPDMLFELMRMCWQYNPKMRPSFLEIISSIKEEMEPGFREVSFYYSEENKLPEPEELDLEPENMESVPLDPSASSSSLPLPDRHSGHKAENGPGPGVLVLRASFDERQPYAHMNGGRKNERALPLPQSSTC
row,IC50 [nM],Structure (SMILES)
1,3.9 to 4,"Nc1ncnc2c1c(-c1cccc(OCC34CCC(CC3)O4)c1)cn2C1CC(CN2CCS(=O)(=O)CC2)C1 (stereo not drawn) [Example 24, 7-[3-(1,1-dioxo-1-thiomorpholin-4-ylmethyl)-cyclobutyl]-5-[3-(7-oxa-bicyclo[2.2.1]hept-1-ylmethoxy)-phenyl]-7H-pyrrolo[2,3-d]pyrimidin-4-ylamine]"
2,116,"NC(=O)[C@H]1CCCN1C[C@H]1C[C@H](n2cc(-c3cccc(OCC4CCCO4)c3)c3c(N)ncnc32)C1 (stereo partly drawn) [Example 87, (R)-1-(trans-3-(4-amino-5-[3-(tetrahydro-furan-2-ylmethoxy)-phenyl]-pyrrolo[2,3-d]pyrimidin-7-yl}-cyclobutylmethyl)-pyrrolidine-2-carboxylic acid amide]"
3,132,"NC(=O)[C@@H]1CCCN1[C@H]1C[C@@H](n2cc(-c3cccc(OCC45CCC(CC4)O5)c3)c3c(N)ncnc32)C1 [Example 189, (S)-1-(cis-3-{4-Amino-5-[3-(7-oxa-bicyclo[2.2.1]hept-1-ylmethoxy)-phenyl]-pyrrolo[2,3-d]pyrimidin-7-yl}-cyclobutyl)-pyrrolidine-2-carboxylic acid amide]"
4,444,"CNC(=O)[C@H]1CCCN1C[C@H]1C[C@@H](n2cc(-c3cccc(OCC4CCCCO4)c3)c3c(N)ncnc32)C1 (stereo partly drawn) [Example 100, (2R)-1-(((1R,3R)-3-(4-amino-5-(3-((tetrahydro-2H-pyran-2-yl)methoxy)phenyl)-7H-pyrrolo[2,3-d]pyrimidin-7-yl)cyclobutyl)methyl)-N-methylpyrrolidine-2-carboxamide]"
5,212,"CC1(C)CCC(COc2cccc(-c3cn([C@H]4C[C@@H](CN5CCNC(=O)C5)C4)c4ncnc(N)c34)c2)O1 (stereo partly drawn) [Example 61, 4-(cis-3-{4-amino-5-[3-(5,6-dimethyl-tetrahydro-furan-2-ylmethoxy)-phenyl]-pyrrolo[2,3-d]pyrimidin-7-yl}-cyclobutylmethyl)-piperazin-2-one]"
6,352,"Nc1ncnc2c1c(-c1cccc(OCC34CCC(CC3)O4)c1)cn2[C@H]1C[C@H](O)C1 [Example 222, (E)-3-{4-amino-5-[3-(7-oxa-bicyclo[2.2.1]hept-1-ylmethoxy)-phenyl]-pyrrolo[2,3-d]pyrimidin-7-yl}-cyclobutanol]"
7,464,"Nc1ncnc2c1c(-c1cccc(OCC34CCC(CC3)O4)c1)cn2C1CCC(O)(CN2CCS(=O)(=O)CC2)CC1 (stereo not drawn) [Example 149, 4-{4-Amino-5-[3-(7-oxa-bicyclo[2.2.1]hept-1-ylmethoxy)-phenyl]-pyrrolo[2,3-d]pyrimidin-7-yl}-1-(1,1-dioxo-1λ6-thiomorpholin-4-ylmethyl)-cyclohexanol]"
8,263,"Nc1ncnc2c1c(-c1cccc(OCC34CCC(CC3)O4)c1)cn2C1CC(O)(CN2CCCC2CO)C1 (single isomer, unassigned) [Example 200]"
9,59,"CC1(C)CCC(COc2cccc(-c3cn([C@H]4C[C@@H](CN5CCSC5)C4)c4ncnc(N)c34)c2)O1 (relative stereo) [Example 70, 5-[3-(5,5-dimethyl-tetrahydro-furan-2-ylmethoxy)-phenyl]-7-(cis-3-thiazolidin-3-ylmethyl-cyclobutyl)-7H-pyrrolo[2,3-d]pyrimidin-4-ylamine]"
10,224,"Nc1ncnc2c1c(-c1cccc(OCC34CCC(CC3)O4)c1)cn2C1CC(O)(CN2CCCC2CO)C1 (single isomer, unassigned) [Example 211]"
11,518,"Nc1ncnc2c1c(-c1cccc(OCC34CCC(CC3)O4)c1)cn2C1CN(C2CS(=O)(=O)C2)C1 [Example 224, 7-[1-(1,1-dioxo-thietan-3-yl)-azetidin-3-yl]-5-[3-(7-oxa-bicyclo[2.2.1]hept-1-ylmethoxy)-phenyl]-7H-pyrrolo[2,3-d]pyrimidin-4-ylamine]"
12,22 to 38,"CC1(C)CCC(COc2cccc(-c3cn([C@H]4C[C@@H](CN5CCC(F)(F)CC5)C4)c4ncnc(N)c34)c2)O1 (single isomer, unassigned) [Example 55]"
13,43,"NC(=O)[C@@H]1[C@@H]2C[C@@H]2CN1CC1CC(n2cc(-c3cccc(OCC4CCCCO4)c3)c3c(N)ncnc32)C1 (stereo partly drawn) [Example 102, (1R,2S,5S)-3-(((1S,3R)-3-(4-amino-5-(3-((tetrahydro-2H-pyran-2-yl)methoxy)phenyl)-7H-pyrrolo[2,3-d]pyrimidin-7-yl)cyclobutyl)methyl)-3-azabicyclo[3.1.0]hexane-2-carboxamide]"
14,364,"Nc1ncnc2c1c(-c1cccc(OCC34CCC(CC3)O4)c1)cn2[C@H]1C[C@@]2(CNC(=O)CO2)C1 [Example 220, (E)-2-{4-amino-5-[3-(7-oxa-bicyclo[2.2.1]hept-1-ylmethoxy)-phenyl]-pyrrolo[2,3-d]pyrimidin-7-yl}-5-oxa-8-aza-spiro[3.5]nonan-7-one]"
15,105,"NC(=O)C1CC(F)CN1CC1CC(n2cc(-c3cccc(OCC4CCCCO4)c3)c3c(N)ncnc32)C1 [Example 97, (2S,4S)-1-(((1S,3R)-3-(4-amino-5-(3-((tetrahydro-2H-pyran-2-yl)methoxy)phenyl)-7H-pyrrolo[2,3-d]pyrimidin-7-yl)cyclobutyl)methyl)-4-fluoropyrrolidine-2-carboxamide]"
16,57,"CC1(C)CCC(COc2cccc(-c3cn([C@H]4C[C@H](CN5CCC[C@@H]5C(N)=O)C4)c4ncnc(N)c34)c2)O1 (stereo partly drawn) [Example 72, (R)-1-(trans-3-{4-amino-5-[3-(5,5-dimethyl-tetrahydro-furan-2-ylmethoxy)-phenyl]pyrrolo[2,3-d]pyrimidin-7-yl}-cyclobutylmethyl)-pyrrolidine-2-carboxylic acid amide]"
17,66,"Nc1ncnc2c1c(-c1cccc(OCC34CCC(CC3)O4)c1)cn2[C@H]1C[C@@]2(CNC(=O)O2)C1 [Example 169, (E)-2-{4-amino-5-[3-(7-oxa-bicyclo[2.2.1]hept-1-ylmethoxy)-phenyl]-pyrrolo[2,3-d]pyrimidin-7-yl}-5-oxa-7-aza-spiro[3.4]octan-6-one]"
18,45 to 60,"Nc1ncnc2c1c(-c1cccc(OCC34CCC(CC3)O4)c1)cn2C1CC(CN2CCC2)C1 (stereo not drawn) [Example 23, 7-(3-azetidin-1-ylmethyl-cyclobutyl)-5-[3-(7-oxa-bicyclo[2.2.1]hept-1-ylmethoxy)-phenyl]-7H-pyrrolo[2,3-d]pyrimidin-4-ylamine]"
19,241,"Nc1ncnc2c1c(-c1cccc(OCC34CCC(CC3)O4)c1)cn2[C@H]1CC[C@@H](n2ccnc2)CC1 [Example 138, 7-((1S,4S)-4-(1H-imidazol-1-yl)cyclohexyl)-5-(3-(7-oxabicyclo[2.2.1]heptan-1-ylmethoxy)phenyl)-7H-pyrrolo[2,3-d]pyrimidin-4-amine]"
20,24 to 54,"CC12CCC(COc3cccc(-c4cn([C@H]5C[C@@H](CN6CCS(=O)(=O)CC6)C5)c5ncnc(N)c45)c3)(CC1)O2 (relative stereo) [Example 155, 7-[cis-3-(1,1-dioxo-1-thiomorpholin-4-ylmethyl)-cyclobutyl]-5-[3-(4-methyl-7-oxa-bicyclo[2.2.1]hept-1-ylmethoxy)-phenyl]-7H-pyrrolo[2,3-d]pyrimidin-4-ylamine]"
21,456,"CC1(C)CS(=O)(=O)CCN1CC1CCC(n2cc(-c3cccc(OCC45CCC(CC4)O5)c3)c3c(N)ncnc32)CC1 (stereo not drawn) [Example 135, 7-[4-(3,3-Dimethyl-1,1-dioxo-1λ6-thiomorpholin-4-ylmethyl)-cyclohexyl]-5-[3-(7-oxa-bicyclo[2.2.1]hept-1-ylmethoxy)-phenyl]-7H-pyrrolo[2,3-d]pyrimidin-4-ylamine]"
22,18,"CC1(C)CCC(COc2cccc(-c3cn([C@H]4C[C@@H](CN5CCC(F)CC5)C4)c4ncnc(N)c34)c2)O1 (single isomer, unassigned) [Example 59, 7-[cis-3-(4-fluoro-piperidin-1-ylmethyl)-cyclobutyl]-5-[3-(5,5-dimethyl-tetrahydro-furan-2-ylmethoxy)-phenyl]-7H-pyrrolo[2,3-d]pyrimidin-4-ylamine]"
23,47,"NC(=O)[C@@H]1CCCN1C[C@H]1C[C@H](n2cc(-c3cccc(OCC4CCCO4)c3)c3c(N)ncnc32)C1 (stereo partly drawn) [Example 86, (S)-1-(trans-3-(4-amino-5-[3-(tetrahydro-furan-2-ylmethoxy)-phenyl]-pyrrolo[2,3-d]pyrimidin-7-yl}-cyclobutylmethyl)-pyrrolidine-2-carboxylic acid amide]"
24,13,"CC1(C)CCC(COc2cccc(-c3cn([C@H]4C[C@H](CN5CC[C@@H](O)[C@H]5C(N)=O)C4)c4ncnc(N)c34)c2)O1 (stereo partly drawn) [Example 80, (2S,3R)-1-(trans-3-(4-amino-5-[3-(5,5-dimethyl-tetrahydro-furan-2-ylmethoxy)-phenyl]-pyrrolo[2,3-d]pyrimidin-7-yl}-cyclobutylmethyl)-3-hydroxy-pyrrolidine-2-carboxylic acid amide]"
25,238,"CC(=O)N[C@H]1CC[C@@H](n2cc(-c3cccc(OCC45CCC(CC4)O5)c3)c3c(N)ncnc32)CC1 [Example 133, N-((1S,4S)-4-(5-(3-(7-oxabicyclo[2.2.1]heptan-1-ylmethoxy)phenyl)-4-amino-7H-pyrrolo[2,3-d]pyrimidin-7-yl)cyclohexyl)acetamide]"
26,128,"CC1(C)CCC(COc2cccc(-c3cn([C@H]4CC[C@@H](N5CCOCC5)CC4)c4ncnc(N)c34)c2)O1 (relative stereo) [Example 65, 5-[3-(5,5-dimethyl-tetrahydro-furan-2-ylmethoxy)-phenyl]-7-(cis-4-morpholin-4-yl-cyclohexyl)-7H-pyrrolo[2,3-d]pyrimidin-4-ylamine]"
27,497,"Nc1ncnc2c1c(-c1cccc(OCC3CCCCO3)c1)cn2[C@H]1C[C@H](CN2CC(F)C2)C1 (relative stereo) [Example 37, 7-[trans-3-(3-fluoro-azetidin-1-ylmethyl)-cyclobutyl]-5-[3-(tetrahydro-pyran-2-ylmethoxy)-phenyl]-7H-pyrrolo[2,3-d]pyrimidin-4-ylamine]"
